According to patent US20230137849A1, “USE OF A COMPOUND OF THE DIURETICS CLASS FOR TREATING CANCER” (AZELEAD, priority 2017, published 2023):
Structures can show the parent of a compound that is named as a salt. Where two headings read alike, the source gives them in different places. One block for each compound: values may come before it.

Experiments:
[1] = Stability test of enantiomers: degradation followed by UHPLC reverse phase purity; format: physicochemical
Procedure: The analysis of the reverse phase purity of the products to be tested was carried out by an ultra-high pressure liquid chromatography (UHPLC) reverse phase chromatography technique on a Waters UPLC2 liquid chromatograph, marketed by Waters. The mobile phase of the separation varies during the method according to the protocol of Table 1.
(§1) The stability tests of the enantiomers were performed by comparing the racemization and the degradation of the stored samples either at room temperature without protection against light, or under controlled temperature at 5° C. and protected from light.
(§2) The stored products are analyzed regularly (T=0, 1 h, 2 h, 3 h, 6 h, 24 h) to follow the evolution of the racemization of enantiomers.
(§3) After separation by SFC acetonitrile version 2, 1.5 mg of EV-VZWOO 1-070-005 and 2.4 mg of EV-VZWOO 1-070-006 are removed for stability testing.
(§4) Sample EV-VZWOO 1-070-005 is stored at a temperature of 5° C. under light protection conditions. Sample EV-VZWOO 1-070-006 is stored at room temperature on the bench without protection against light.

[2] = Stability test of enantiomers: racemization followed by SFC chiral purity analysis; format: physicochemical
Procedure: The analysis of the chiral purity of the products to be tested was carried out by a supercritical fluid separation (SFC) technique on a Berger prep chromatograph, marketed by Thar Instruments. The mobile phase of the separation consists of a mixture of methanol added. 0.01% acetic acid and CO2 in a 20/80 ratio. The stationary phase chosen is a Chiralpak IC […] column, 250 mm by 20 mm, marketed by sigma aldrich. The injection rate is 50 ml per minute, at 40° C. under a pressure of 100 bar. The product to be analyzed is dissolved in methanol supplemented with 0.01% acetic acid, with a concentration of 1 mg/ml. 10 μl of this product is injected. The detector is a UV detector with a wavelength greater than 275 nm.
as §1, §2, §3, §4

[3] = system: hematopoietic stem cells CD41:GFP accumulated in the CHT; format: in vivo; settings: for invasion of CHT by CD41:GFP cells / number of cells having colonized CHT, in words: thiazide compounds test, 10 μM or 25 μM, FIG. 9; for reduction of the number of HSCs accumulated in CHT: 24 h
Description: A method for determining whether a molecule is capable of treating cancer in the pre-metastatic state has been described in international application WO 2011/007259. This method consists in isolating molecules capable of inhibiting the emergence of hematopoietic stem cells from the floor of the aorta without cell division, but by endothelial-to-hematopoietic transition. This emergence involves the loss of cell polarity of emerging cells, the loss of cellular junctions with these neighboring cells and the acquisition of migratory properties. This model is used because it mimics each stage of the epithelial-mesenchymal transition, the first stage of cancer metastasis. The endothelial-to-hematopoietic transition takes place in a region of the embryo called Aorta-Gonad-Mesonephros (AGM).
(§5) The colonization of hematopoietic tissues by hematopoietic stem cells mimics the appearance and/or progression of a metastatic cancerous tumor since it involves intravasation, extravasation, or the migration of HSCs following a gradient of SDF-1. The first colonized tissue is caudal hematopoietic tissue (CHT).
In order to evaluate the inhibition of the endothelial-to-hematopoietic transition, transgenic CD41:GFP (green fluorescent protein) embryos are used. HSCs express GFP under the control of the CD41 promoter, which allows them to be monitored in vivo under a fluorescence microscope. The read-out is the number of hematopoietic stem cells CD41:GFP accumulated in the AGM (mimicking the initiation of the metastatic process) and/or in the CHT of the zebrafish embryo (mimicking the progression of the metastatic process). The accumulation of CD41:GFP cells in CHT implies that each cell has made an endothelial-to-hematopoietic transition, intravasation, extravasation at the CHT level, has settled in a stromal niche and has proliferated.
The Tg transgenic zebrafish line (CD41:GFP) is maintained in accordance with the protocols described by the Ethical Committee for Animal Experimentation. The fish are kept at a temperature of 28° C. and their development stage is determined as before. The molecules are tested on zebrafish embryos at the 25 hpf stage. The embryos are decorticated and transferred to a 96-well plate (1 embryo/well) containing the test compounds in a final volume of 100 μl of the embryonic growth medium (60 μg salt for 1 ml H2O). […] The treated embryos are incubated for 24 hours in an incubator at 28° C.
The embryos are imaged with a plate reader after being anesthetized with 0.16% tricaine (ethyl-3-aminobenzoate). A quantification of the number of fluorescent cells (CD41:GFP) accumulated in the CHT is carried out.
Althiazide was tested on the zebrafish embryo according to the method previously described in the international application WO 2011/007259. This method consists in isolating molecules capable of inhibiting the emergence of hematopoietic stem cells from the floor of the aorta without cell division, but by endothelial-to-hematopoietic transition. This emergence involves the loss of cell polarity of emerging cells, the loss of cellular junctions with these neighboring cells and the acquisition of migratory properties. This model is used, in the context of the invention, because it mimics each of the stages of the epithelial-to-mesenchymal transition, the first stage of the cancerous metastasis. The endothelial-to-hematopoietic transition takes place in a region of the embryo called Aorto-Gonado-Mesonephros (AGM).
as §5, with “metastatic” for “metastatic cancerous”, “SDF1.” for “SDF-1.”, “(CHT). This physiological process is considered, in the context of the invention, as representative of the appearance and/or progression of a metastatic tumor. […]” for “(CHT).”

MDA-MB-231 cells = test: Cytotoxicity potentiation test: MTT cell viability of MDA-MB-231 cells, doxorubicin +/- althiazide; format: cell-based, human; settings: Homo sapiens, MDA-MB-231, 24 h, 24 h, 1% O2
Procedure: The cell cultures are carried out on human breast cancer epithelial cell lines MDA-MB-231 (HTB-26™), resulting from metastases present in a pleural effusion of a patient with a mammary adenocarcinoma. This line is used as a triple negative cancer cell model (no expression of ER-type nuclear estrogen receptors, nuclear progesterone receptors or overexpression of the oncogene encoding HER2 protein (Human Epidermal Growth factor Receptor-2).
The cell viability is determined via the IC50 index, measured by the MTT technique (2-(4,5-dimethyl-2-thiazolyl)-3,5-diphenyl-2H-tetrazolium bromide) (Mosmann, 1983). This colorimetric test is based on the reduction of yellow tetrazolium salts into insoluble purple formazan crystals in aqueous solution. The spectrophotometric measurement of the absorbance at 570 nm is directly proportional to the number of viable cells
The cells were seeded in 96-well plates at a density of 25,000 cells per well. After 24 h of culture at 37° C., 5% CO2 and 1% O2, the medium was renewed and supplemented with increasing doses of doxorubicin+/−althiazide. Cells were incubated for 24 h at 37° C., 5% CO2 and 1% O2. The MDA-MB-231 cells were washed and then incubated for 1 hour at 37° C. with 100 μl of a 0.5 mg/ml MTT solution prepared in culture medium. The formazan crystals were dissolved in […] and the absorbance measured at 570 nm using the Tecan Sunrise spectrophotometer. The IC50 was determined using the Graphpad Prism 5.0 software. The treatments were carried out in triplicate and the manipulation was carried out 5 times.
The tests are carried out in cell culture in 96-well plates, on the cell line MDA-MB-231. The MDA-MB-231 cells are seeded in 96-well plates at a density of 10,000 cells and incubated 24 h at 37° C., 5% CO2 and 1% O2. The medium is then renewed and added with increasing concentrations of doxorubicin+/−100 μM althiazide. The cells are incubated for an additional 24 hours at 37° C., 5% CO2 and 1% O2. Treatments were made in triplicas and the experiment was repeated 5 times.
A cell viability test is then performed according to the method described in Materials and methods.
Results are normalized to the control condition (FIG. 12)

[4] = 0 h, stored at 5° C. protected from light
[5] = 24 h, stored at 5° C. protected from light
[6] = 1 h, stored at 5° C. protected from light
[7] = 2 h, stored at 5° C. protected from light
[8] = 3 h, stored at 5° C. protected from light
[9] = 6 h, stored at 5° C. protected from light
[10] = 0 h, stored at room temperature without protection against light
[11] = 24 h, stored at room temperature without protection against light
[12] = 1 h, stored at room temperature without protection against light
[13] = 2 h, stored at room temperature without protection against light
[14] = 3 h, stored at room temperature without protection against light
[15] = 6 h, stored at room temperature without protection against light
[16] = 10 μM (FIG. 3; b188 prints 10 μl), vs reference embryos treated with DMSO

UHPLC Pureté en phase inverse [1, 4]: 99.9%
UHPLC Pureté en phase inverse [1, 5]: 94.9%
SFC AZ(A) (%) [2, 4]: 100%
SFC AZ(B) (%) [2, 4]: 0%
SFC AZ(A) (%) [2, 6]: 100%
SFC AZ(B) (%) [2, 6]: 0%
SFC AZ(A) (%) [2, 7]: 100%
SFC AZ(B) (%) [2, 7]: 0%
SFC AZ(A) (%) [2, 8]: 100%
SFC AZ(B) (%) [2, 8]: 0%
SFC AZ(A) (%) [2, 9]: 100%
SFC AZ(B) (%) [2, 9]: 0%
SFC AZ(A) (%) [2, 5]: 100%
SFC AZ(B) (%) [2, 5]: 0%
Compound: C=CCSC[C@@H]1Nc2cc(Cl)c(S(N)(=O)=O)cc2S(=O)(=O)N1 [AZ(A)]
invasion of CHT by CD41:GFP cells / number of cells having colonized CHT, in words [3]: further reduce

UHPLC Pureté en phase inverse [1, 10]: 100%
UHPLC Pureté en phase inverse [1, 11]: 90.5%
SFC AZ(A) (%) [2, 10]: 0.6%
SFC AZ(B) (%) [2, 10]: 99.4%
SFC AZ(A) (%) [2, 12]: 1.2%
SFC AZ(B) (%) [2, 12]: 98.8%
SFC AZ(A) (%) [2, 13]: 1.2%
SFC AZ(B) (%) [2, 13]: 98.8%
SFC AZ(A) (%) [2, 14]: 1.7%
SFC AZ(B) (%) [2, 14]: 98.3%
SFC AZ(A) (%) [2, 15]: 3%
SFC AZ(B) (%) [2, 15]: 97%
SFC AZ(A) (%) [2, 11]: 9.7%
SFC AZ(B) (%) [2, 11]: 90.3%
Compound: C=CCSC[C@H]1Nc2cc(Cl)c(S(N)(=O)=O)cc2S(=O)(=O)N1 [AZ(B)]
invasion of CHT by CD41:GFP cells / number of cells having colonized CHT, in words [3]: further reduce

Compound: NS(=O)(=O)c1cc(C2(O)NC(=O)c3ccccc32)ccc1Cl (stereo not shown) [Chlortalidone, reference compound]
reduction of the number of HSCs accumulated in CHT [3, 16]: do not cause a decrease

Compound: NNc1nncc2ccccc12 [Hydralazine-hydrochloride, reference compound]
reduction of the number of HSCs accumulated in CHT [3, 16]: do not cause a decrease

Compound: NS(=O)(=O)c1cc2c(cc1Cl)NCNS2(=O)=O [Hydrochlorothiazide, reference compound]
reduction of the number of HSCs accumulated in CHT ([3]; 10 µM): 20%

Compound: Cc1ccccc1N1C(=O)c2cc(S(N)(=O)=O)c(Cl)cc2NC1C (stereo not shown) [Metolazone, reference compound]
reduction of the number of HSCs accumulated in CHT [3, 16]: do not cause a decrease

Compound: C[N+]1(CCCCC[N+]2(C)CCCC2)CCCC1.O=C([O-])C(O)C(O)C(=O)O.O=C([O-])C(O)C(O)C(=O)O [Pentolinium-bitartrate, reference compound]
reduction of the number of HSCs accumulated in CHT [3, 16]: do not cause a decrease

Compound: COc1cccc2c1C(=O)c1c(O)c3c(c(O)c1C2=O)C[C@@](O)(C(=O)CO)C[C@@H]3O[C@H]1C[C@H](N)[C@H](O)[C@H](C)O1 [doxorubicin, reference compound]
IC50 (MDA-MB-231 cells; doxorubicin + 100 μM althiazide): 3.32 µM
IC50 (MDA-MB-231 cells; doxorubicin alone): 6.02 µM
